{
  "source": "patent US11357779B2",
  "about": "(G1 Therapeutics, Inc., priority 2018, dated 2022)",
  "assay": "Plasma concentration versus time of Compound I and metabolite Compound III in patients dosed QD or BID with Form B of Compound II plus fulvestrant",
  "type": "in vivo, human",
  "details": "human, plasma, oral; for concentration at 0 h / concentration at 1 h / concentration at 2 h / concentration at 3 h / concentration at 4 h / concentration at 6 h / concentration at 8 h / concentration at 10 h / concentration at 12 h / concentration at 24 h: read-out: Compound I Concentration; for concentration at 8 day / concentration at 15 day / concentration at 22 day: Cohort 4, 500 mg QD of Form B; for concentration at 8 day: Day 8; for concentration at 15 day: Day 15; for concentration at 22 day: Day 22",
  "from_the_text": "Patients were enrolled into 1 of 2 parallel, independently operating, dose-escalation dosing cohorts with Form B of Compound II administered continuously either once daily (QD) or twice daily (BID) with food with fixed-dose fulvestrant (intramuscularly every 14 days for the first three injections and then every 28 days). Pre- or perimenopausal patients also received goserelin for the duration of study treatment. A […] agonist was started at least 28 days before the first dose of Form B, and those patients who were taking another LHRH agonist were switched to goserelin on Day 1. Patients were split into […] cohorts providing once a day (QD) dosing of 200 mg, 300 mg, 400 mg, 500 mg, or 650 mg of Form B, or twice a day (BID) dosing of 100 mg, 150 mg, or 200 mg of Form B. The second dose in BID cohorts was not administered in the evening until at least 12 hours after the initial morning dose of Form B. The dosing cohorts for Form B of Compound II are provided in Table 1.\nBlood samples were collected at the following time points relative to the morning dose of Form B at Day 1 and at Day 29: pre-dose (0 hour) and 1, 2, 3, 4, 6, 8, 10, 12 (prior to the evening dose in the BID cohorts), and 24 (prior to the next day's morning dose) hours after dosing. A 5-minute time window was allowed for samples collected between the predose and 3 hours after Form B dosing. A 15-minute window was allowed for samples collected between 4 to 12 hours after Form B dosing. A 1-hour window was allowed for the sample collected 24 hours after Form B dosing. Blood samples for Compound I PK trough levels were collected pre-dose at Day 8, Day 15, and Day 22 prior to the morning administration of Compound I. Plasma concentrations of Compound I and its metabolite, Compound III, were measured using validated methods.\nAnalysis of plasma concentration versus time data for calculation of standard pharmacokinetic (PK) parameters following oral administration was conducted using Phoenix WinNonlin version 6.3 using actual blood sampling times.",
  "key": {"[1]": {"details": "500 mg, read-out: Trough Compound I Concentration, Max"}, "[2]": {"details": "500 mg, read-out: Trough Compound I Concentration, Median"}},
  "note": "Like-named read-outs stand apart in the source and are kept apart here.",
  "data": [
    {"compound": "CC(C)N1CCN(c2ccc(Nc3ncc4cc5n(c4n3)C3(CCCCC3)CNC5=O)nc2)CC1", "note": "[Compound I, 2′-((5-(4-isopropylpiperazin-1-yl)pyridin-2-yl)amino)-7′,8′-dihydro-6′H-spiro[cyclohexane-1,9′-pyrazino[1′,2′:1,5]pyrrolo[2,3-d]pyrimidin]-6′-one]", "values": [
      {"measurement": "concentration at 0 h", "setting": "500 mg, 500 mg QD of Form B, Day 1, 0.0 h, Median", "value": 0, "unit": "ng/mL"},
      {"measurement": "concentration at 1 h", "setting": "500 mg, 500 mg QD of Form B, Day 1, 1.0 h, Mean", "value": 10.4, "unit": "ng/mL"},
      {"measurement": "concentration at 1 h", "setting": "500 mg, 500 mg QD of Form B, Day 1, 1.0 h, Median", "value": 10.2, "unit": "ng/mL"},
      {"measurement": "concentration at 2 h", "setting": "500 mg, 500 mg QD of Form B, Day 1, 2.0 h, Mean", "value": 18.5, "unit": "ng/mL"},
      {"measurement": "concentration at 2 h", "setting": "500 mg, 500 mg QD of Form B, Day 1, 2.0 h, Median", "value": 18.1, "unit": "ng/mL"},
      {"measurement": "concentration at 3 h", "setting": "500 mg, 500 mg QD of Form B, Day 1, 3.0 h, Mean", "value": 34.3, "unit": "ng/mL"},
      {"measurement": "concentration at 3 h", "setting": "500 mg, 500 mg QD of Form B, Day 1, 3.0 h, Median", "value": 27.4, "unit": "ng/mL"},
      {"measurement": "concentration at 4 h", "setting": "500 mg, 500 mg QD of Form B, Day 1, 4.0 h, Mean", "value": 35.4, "unit": "ng/mL"},
      {"measurement": "concentration at 4 h", "setting": "500 mg, 500 mg QD of Form B, Day 1, 4.0 h, Median", "value": 35.3, "unit": "ng/mL"},
      {"measurement": "concentration at 6 h", "setting": "500 mg, 500 mg QD of Form B, Day 1, 6.0 h, Mean", "value": 46.5, "unit": "ng/mL"},
      {"measurement": "concentration at 6 h", "setting": "500 mg, 500 mg QD of Form B, Day 1, 6.0 h, Median", "value": 45.6, "unit": "ng/mL"},
      {"measurement": "concentration at 8 h", "setting": "500 mg, 500 mg QD of Form B, Day 1, 8.0 h, Mean", "value": 40.6, "unit": "ng/mL"},
      {"measurement": "concentration at 8 h", "setting": "500 mg, 500 mg QD of Form B, Day 1, 8.0 h, Median", "value": 42.3, "unit": "ng/mL"},
      {"measurement": "concentration at 10 h", "setting": "500 mg, 500 mg QD of Form B, Day 1, 10.0 h, Mean", "value": 32.2, "unit": "ng/mL"},
      {"measurement": "concentration at 10 h", "setting": "500 mg, 500 mg QD of Form B, Day 1, 10.0 h, Median", "value": 33.4, "unit": "ng/mL"},
      {"measurement": "concentration at 12 h", "setting": "500 mg, 500 mg QD of Form B, Day 1, 12.0 h, Mean", "value": 27.8, "unit": "ng/mL"},
      {"measurement": "concentration at 12 h", "setting": "500 mg, 500 mg QD of Form B, Day 1, 12.0 h, Median", "value": 28.3, "unit": "ng/mL"},
      {"measurement": "concentration at 24 h", "setting": "500 mg, 500 mg QD of Form B, Day 1, […], Mean", "value": 8.93, "unit": "ng/mL"},
      {"measurement": "concentration at 24 h", "setting": "500 mg, 500 mg QD of Form B, Day 1, […], Median", "value": 7.17, "unit": "ng/mL"},
      {"measurement": "concentration at 0 h", "setting": "500 mg, 500 mg QD of Form B, Day 29, 0.0 h, Mean", "value": 14.4, "unit": "ng/mL"},
      {"measurement": "concentration at 0 h", "setting": "500 mg, 500 mg QD of Form B, Day 29, 0.0 h, Median", "value": 15.3, "unit": "ng/mL"},
      {"measurement": "concentration at 1 h", "setting": "500 mg, 500 mg QD of Form B, Day 29, 1.0 h, Mean", "value": 21.2, "unit": "ng/mL"},
      {"measurement": "concentration at 1 h", "setting": "500 mg, 500 mg QD of Form B, Day 29, 1.0 h, Median", "value": 17.6, "unit": "ng/mL"},
      {"measurement": "concentration at 2 h", "setting": "500 mg, 500 mg QD of Form B, Day 29, 2.0 h, Mean", "value": 34.2, "unit": "ng/mL"},
      {"measurement": "concentration at 2 h", "setting": "500 mg, 500 mg QD of Form B, Day 29, 2.0 h, Median", "value": 33.8, "unit": "ng/mL"},
      {"measurement": "concentration at 3 h", "setting": "500 mg, 500 mg QD of Form B, Day 29, 3.0 h, Mean", "value": 40.3, "unit": "ng/mL"},
      {"measurement": "concentration at 3 h", "setting": "500 mg, 500 mg QD of Form B, Day 29, 3.0 h, Median", "value": 41.4, "unit": "ng/mL"},
      {"measurement": "concentration at 4 h", "setting": "500 mg, 500 mg QD of Form B, Day 29, 4.0 h, Mean", "value": 41.8, "unit": "ng/mL"},
      {"measurement": "concentration at 4 h", "setting": "500 mg, 500 mg QD of Form B, Day 29, 4.0 h, Median", "value": 44.9, "unit": "ng/mL"},
      {"measurement": "concentration at 6 h", "setting": "500 mg, 500 mg QD of Form B, Day 29, 6.0 h, Mean", "value": 41.5, "unit": "ng/mL"},
      {"measurement": "concentration at 6 h", "setting": "500 mg, 500 mg QD of Form B, Day 29, 6.0 h, Median", "value": 43.2, "unit": "ng/mL"},
      {"measurement": "concentration at 8 h", "setting": "500 mg, 500 mg QD of Form B, Day 29, 8.0 h, Mean", "value": 34.1, "unit": "ng/mL"},
      {"measurement": "concentration at 8 h", "setting": "500 mg, 500 mg QD of Form B, Day 29, 8.0 h, Median", "value": 33.5, "unit": "ng/mL"},
      {"measurement": "concentration at 10 h", "setting": "500 mg, 500 mg QD of Form B, Day 29, 10.0 h, Mean", "value": 26.7, "unit": "ng/mL"},
      {"measurement": "concentration at 10 h", "setting": "500 mg, 500 mg QD of Form B, Day 29, 10.0 h, Median", "value": 25.6, "unit": "ng/mL"},
      {"measurement": "concentration at 12 h", "setting": "500 mg, 500 mg QD of Form B, Day 29, 12.0 h, Mean", "value": 24.4, "unit": "ng/mL"},
      {"measurement": "concentration at 12 h", "setting": "500 mg, 500 mg QD of Form B, Day 29, 12.0 h, Median", "value": 25.2, "unit": "ng/mL"},
      {"measurement": "concentration at 24 h", "setting": "500 mg, 500 mg QD of Form B, Day 29, […], Mean", "value": 12.5, "unit": "ng/mL"},
      {"measurement": "concentration at 24 h", "setting": "500 mg, 500 mg QD of Form B, Day 29, […], Median", "value": 13, "unit": "ng/mL"},
      {"measurement": "concentration at 8 day", "setting": "[1]", "value": 23.5, "unit": "ng/mL"},
      {"measurement": "concentration at 8 day", "setting": "[2]", "value": 17.2, "unit": "ng/mL"},
      {"measurement": "concentration at 15 day", "setting": "[1]", "value": 32.8, "unit": "ng/mL"},
      {"measurement": "concentration at 15 day", "setting": "[2]", "value": 23.9, "unit": "ng/mL"},
      {"measurement": "concentration at 22 day", "setting": "[1]", "value": 27.3, "unit": "ng/mL"},
      {"measurement": "concentration at 22 day", "setting": "[2]", "value": 17.7, "unit": "ng/mL"},
      {"measurement": "concentration at 0 h", "setting": "650 mg, 650 mg QD of Form B, Day 1, 0.0 h, Mean", "value": 0, "unit": "ng/mL"},
      {"measurement": "concentration at 0 h", "setting": "650 mg, 650 mg QD of Form B, Day 1, 0.0 h, Median", "value": 0, "unit": "ng/mL"},
      {"measurement": "concentration at 1 h", "setting": "650 mg, 650 mg QD of Form B, Day 1, 1.0 h, Mean", "value": 12.7, "unit": "ng/mL"},
      {"measurement": "concentration at 1 h", "setting": "650 mg, 650 mg QD of Form B, Day 1, 1.0 h, Median", "value": 9.68, "unit": "ng/mL"},
      {"measurement": "concentration at 2 h", "setting": "650 mg, 650 mg QD of Form B, Day 1, 2.0 h, Mean", "value": 24.8, "unit": "ng/mL"},
      {"measurement": "concentration at 2 h", "setting": "650 mg, 650 mg QD of Form B, Day 1, 2.0 h, Median", "value": 19.1, "unit": "ng/mL"},
      {"measurement": "concentration at 3 h", "setting": "650 mg, 650 mg QD of Form B, Day 1, 3.0 h, Mean", "value": 30.9, "unit": "ng/mL"},
      {"measurement": "concentration at 3 h", "setting": "650 mg, 650 mg QD of Form B, Day 1, 3.0 h, Median", "value": 31.6, "unit": "ng/mL"},
      {"measurement": "concentration at 4 h", "setting": "650 mg, 650 mg QD of Form B, Day 1, 4.0 h, Mean", "value": 43.7, "unit": "ng/mL"},
      {"measurement": "concentration at 4 h", "setting": "650 mg, 650 mg QD of Form B, Day 1, 4.0 h, Median", "value": 43.5, "unit": "ng/mL"},
      {"measurement": "concentration at 6 h", "setting": "650 mg, 650 mg QD of Form B, Day 1, 6.0 h, Mean", "value": 52.7, "unit": "ng/mL"},
      {"measurement": "concentration at 6 h", "setting": "650 mg, 650 mg QD of Form B, Day 1, 6.0 h, Median", "value": 49.8, "unit": "ng/mL"},
      {"measurement": "concentration at 8 h", "setting": "650 mg, 650 mg QD of Form B, Day 1, 8.0 h, Mean", "value": 59.6, "unit": "ng/mL"}
    ]}
  ]
}
